# doi:10.1101/2022.03.28.485913v1, “A unified in vitro to in vivo fluorescence lifetime screening platform yields amyloid β aggregation inhibitors” (biorxiv, 2022)
# Legend:
# amyloid β (1-42) (Aβ42) [1] = target: T1, amyloid β (1-42) (Aβ42) (Homo sapiens, UniProt P05067); assay: nanoFLIM aggregation assay, TEM; format: biochemical; settings: 10 μM Aβ42-488, 50% labelled, 10 or 50 μM compound; ThT assay masked by compound fluorescence
# T1 construct: gene APP; Amyloid-beta 1-42 peptide cut from APP, 42 residues; synthetic, unlabelled or partly mixed with N-terminally HiLyte Fluor 488 labelled peptide; recombinant 15N peptide (AlexoTech) for NMR; aggregating, starting from monomer
# T1 sequence (P05067 672-713): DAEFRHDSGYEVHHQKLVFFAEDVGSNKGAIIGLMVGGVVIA
# amyloid β (1-42) (Aβ42) [2] = target: T1, amyloid β (1-42) (Aβ42); assay: nanoFLIM aggregation kinetics, fluorescence lifetime in microfluidic droplets, initial rates; format: biochemical
SMILES,"nanoFLIM aggregation assay, TEM (amyloid β (1-42) (Aβ42) [1])",IC50 (amyloid β (1-42) (Aβ42) [2])
COC(=O)c1ccccc1NC(=O)c1cc(-c2ccccc2)nc2ccccc12 [MJ001],"MJ001 and MJ042 (Fig. 2a,b), showed weaker, yet significant inhibitory activity",–
O=C(O)c1cc(-c2cccc(Br)c2)nc2ccc([N+](=O)[O-])cc12 [MJ040],–,4.3 ± 1.3 µM
O=C(O)c1cc(-c2cc(F)cc(Cl)c2)nc2ccccc12 [MJ042],"MJ001 and MJ042 (Fig. 2a,b), showed weaker, yet significant inhibitory activity",–
